Results on 9 molecules are retold here after patent US4870097A, “Pharmaceutical use of derivatives of tryptophan” (priority 1984, dated 1989).

Assay [1] deals with activity of analgesic drugs. The assay can be described thus: Hot plate test: potentiation of analgesic drugs. It is filed as in vivo, rats. To be noted: analgesic alone i.p. (Prop 15, Oxy 50, Asa 100 mg/kg); for Positive Total X/25: 10'-60'. Here is the method:
The method is that described by Eddy et al. (J. Pharmac. Exp. Ther. 107, 385 (1953)).
Groups of five male rats having a weight of about 150 g and which have not been fasting are used.
The animals are placed on a metal plate which is on the bottom of a transparent cylinder heated to 55°±1° C. by an azeotropic boiling mixture (1:1 acetone-ethyl formate). The time which passes between the moment at which the animal is placed on the hot plate and the moment at which it licks its feet or tries to jump out of the cylinder is defined as the reaction time. The control reaction time is measured 10 and 5 minutes before the administration of the drugs and 10, 20, 30, 45, 60, 90 minutes afterwards. The animals are left on the plate for a maximum period of 30 seconds.
The response to the administration of the product is considered positive if at least a doubling of the normal reaction time is seen. The results obtained are given in Table 2 which records the groups treated, the dose administered and the stay times on the plate expressed as the number of positive responses over the number treated.
(Thermal pain tests record how soon the animal reacts.)

Assay [2] relates to analgesic activity of morphine. As to the kind of experiment: Tail Flick Test: increase in the analgesic effect of morphine. It is filed as in vivo, rats. To be noted: for percentage variation in the latency of the pain sensation, 10' / percentage variation in the latency of the pain sensation, 20' / percentage variation in the latency of the pain sensation, 30' / percentage variation in the latency of the pain sensation, 45' / percentage variation in the latency of the pain sensation, 60' / percentage variation in the latency of the pain sensation, 90' / M(10'-90') average percentage variation: compound 10 mg/kg i.p. + morphine 2 mg/kg (row Morphine: alone); for percentage variation in the latency of the pain sensation, 10' / percentage variation in the latency of the pain sensation, 20' / percentage variation in the latency of the pain sensation, 30' / percentage variation in the latency of the pain sensation, 45' / percentage variation in the latency of the pain sensation, 60' / percentage variation in the latency of the pain sensation, 90': ± S.E.; for M(10'-90') average percentage variation: mean 10'-90'; for Potency ratio relative to morphine alone: rat, in vivo. Here is the method:
Increase in the analgesic effect of analgesic-narcotic drugs in rats in the Tail Flick Test
The method is that described by Harris et al. (J. Pharmacol. Exp. Ther. 143 (1964) 141-148).
Male rats are used which have a weight of about 150-200 g and which have not been fasting. A point is chosen on the tail and this is irradiated by a heat source (75° C.) and the time (in seconds) for which the animal remains without moving its tail is measured.
A maximum period of time under the heat source of 8 seconds is chosen after which the animal is, in any case, removed in order to avoid tissue damage. The measurement is effected before (controls) and after treatment with the drugs.
. The percentage variation is calculated for each individual animal by the following formula: [formula] The measurements are carried out 10, 20, 30, 45, 60 and 90 minutes after treatment with the analgesics.
The results obtained are given in Table 1 which records the groups treated and the doses administered, the
average percentage variations (calculated on groups of five animals) in […]

Assay [3] concerns guinea pig gall bladder contracted with CCK-8. As to the kind of experiment: Anti-CCK activity on guinea pig gall bladders in vitro. It is filed as biochemical. To be noted: CCK-8 10 ng/ml, concentration antagonising 50% of contracting effect. Here is the method: A longitudinal strip of guinea pig gall bladder is placed in a bath of Krebs for isolated organs at a temperature of 32° C. and oxygenated continuously with an oxygen-CO2 mixture (95-5 V/V).
The […] contractions are detected by means of a force transducer and recorded.
The gall bladder is contracted with the use of a CCK-8 solution at a concentration of 10 ng/ml; the antagonistic activity of the compounds of the invention towards the contracting effect of the CCK is determined with the use of different concentrations, the ED50 value, that is the concentration of the compound in mcg/ml capable of antagonising 50% of the contracting effect of the CCK, being determined.
The results obtained are set out in the following table which gives the compounds tested and the ED50 values which are calculated by the method of regression on a test of at least three experiments for each compound studied.

The test system of assay [4] is tolerance induced by morphine. As to the kind of experiment: Antagonism to the development of tolerance to repeated administration of morphine HCl (tail flick). It is filed as in vivo, rats. How it is done:
Several of the compounds of the invention were examined to determine any capacity to antagonise the development of tolerance induced by morphine. Groups of six male rats having a weight of about 200-250 were used.
At intervals of 24 hours from the first treatment (time 0), each animal (except for the control group treated with a physiological solution) received 3 mg/kg of morphine hydrochloride i.p. together with 3 mg/kg i.p. of the compounds indicated (with the exception of the group treated solely with morphine).
The determination of the threshold for the pain stimulus was effected at 15°, 30', 45' and 60' intervals from the treatment by the "tail flick" test.

Turning to `CC(=O)Oc1ccccc1C(=O)O` [Acetylsalicylic acid, reference compound], in assay [1], the “positive responses over the number treated, 10'” value is recorded as 1/5; the “Positive Total X/25” value turned out to be 7; the “positive responses over the number treated, 20'” value is listed as 2/5; the “positive responses over the number treated, 30'” value is on record as 2/5. Further, in assay [1], the “positive responses over the number treated, 45'” value is reported as 2/5 and the “positive responses over the number treated, 60'” value is 0/5.

With `O=C(N[C@@H](Cc1c[nH]c2ccccc12)C(=O)O)OCc1ccc(Br)cc1` [Compound 3], in assay [2], the “percentage variation in the latency of the pain sensation, 10'” value (“percentage variation in the latency … 10'” below) was found to be 70.7 ± 19.7%; the “percentage variation in the latency of the pain sensation, 20'” value (“percentage variation in the latency … 20'” for short) came out at 90.3 ± 9.7%; the “percentage variation in the latency of the pain sensation, 30'” value (from here on “percentage variation in the latency … 30'”) was 74.7 ± 16.9%; the “percentage variation in the latency of the pain sensation, 45'” value (from here on “percentage variation in the latency … 45'”) was found to be 86.2 ± 11.0%. Besides, in assay [2], the “percentage variation in the latency of the pain sensation, 60'” value (from here on “percentage variation in the latency … 60'”) is 100.0 ± 0.0%; the “percentage variation in the latency of the pain sensation, 90'” value (from here on “percentage variation in the latency … 90'”) came out at 53.7 ± 17.2%; the “M(10'-90') average percentage variation” value came to 79.3%; the “Potency ratio relative to morphine alone” value was determined as 2.66. Moreover, the “Anti CCK-8 activity, ED50” value in assay [3] is 33.6 mg/L.

Take `O=C(N[C@@H](Cc1c[nH]c2ccccc12)C(=O)O)OCc1ccc(I)cc1` [Compound 4]: in assay [2], the “percentage variation in the latency … 10'” value is reported as 62.8 ± 22.8%; the “percentage variation in the latency … 20'” value is given as 76.9 ± 14.4%; the “percentage variation in the latency … 30'” value worked out at 85.3 ± 13.9%; the “percentage variation in the latency … 45'” value was determined as 56.4 ± 18.2%. For the same molecule, in assay [2], the “percentage variation in the latency … 60'” value was 48.1 ± 16.9%; the “percentage variation in the latency … 90'” value stood at 19.4 ± 11.1%; the “M(10'-90') average percentage variation” value was 58.2%; the “Potency ratio relative to morphine alone” value is 1.95. Besides, the “Anti CCK-8 activity, ED50” value in assay [3] was determined as 48.2 mg/L.

In the case of `O=C(N[C@@H](Cc1c[nH]c2ccccc12)C(=O)O)OCc1cccc(Cl)c1` [Compound 5], in assay [2], the “percentage variation in the latency … 10'” value was 34.5 ± 13.3%; the “percentage variation in the latency … 20'” value was 53.0 ± 24.8%; the “percentage variation in the latency … 30'” value turned out to be 62.5 ± 16.6%; the “percentage variation in the latency … 45'” value was 50.5 ± 17.6%. In assay [2], the “percentage variation in the latency … 60'” value was determined as 43.7 ± 10.1%; the “percentage variation in the latency … 90'” value came to 52.2 ± 22.2%; the “M(10'-90') average percentage variation” value was determined as 50.9%; the “Potency ratio relative to morphine alone” value worked out at 1.71. Also, in assay [3], the “Anti CCK-8 activity, ED50” value came to 23.2 mg/L.

Take `O=C(N[C@@H](Cc1c[nH]c2ccccc12)C(=O)O)OCc1ccc(Cl)c(Cl)c1` [Compound 6]: in assay [2], the “percentage variation in the latency … 10'” value is listed as 68.6 ± 20.4%; the “percentage variation in the latency … 20'” value was determined as 78.0 ± 17.9%; the “percentage variation in the latency … 30'” value is 80.4 ± 19.6%; the “percentage variation in the latency … 45'” value amounted to 84.5 ± 11.4%. For the same molecule, in assay [2], the “percentage variation in the latency … 60'” value is listed as 76.3 ± 13.8%; the “percentage variation in the latency … 90'” value was found to be 71.9 ± 15.2%; the “M(10'-90') average percentage variation” value was 78.6%; the “Potency ratio relative to morphine alone” value is 2.57. In addition, in assay [3], the “Anti CCK-8 activity, ED50” value was 16.1 mg/L.

For `O=C(N[C@@H](Cc1c[nH]c2ccccc12)C(=O)O)OCc1ccc(C(F)(F)F)cc1` [Compound 7], in assay [2], the “percentage variation in the latency … 10'” value is 38.3 ± 13.7%; the “percentage variation in the latency … 20'” value was 34.4 ± 5.7%; the “percentage variation in the latency … 30'” value is 44.4 ± 14.8%; the “percentage variation in the latency … 45'” value turned out to be 48.3 ± 14.6%. In assay [2], the “percentage variation in the latency … 60'” value is 47.2 ± 16.9%; the “percentage variation in the latency … 90'” value is 47.9 ± 15.4%; the “M(10'-90') average percentage variation” value was 43.4%; the “Potency ratio relative to morphine alone” value is listed as 1.45. Further, the “Anti CCK-8 activity, ED50” value in assay [3] stood at 108.7 mg/L.

On to `CN1CC[C@]23c4c5ccc(O)c4O[C@H]2[C@@H](O)C=C[C@H]3[C@H]1C5` [Morphine, morphine, reference compound], for which, in assay [2], the “percentage variation in the latency … 10'” value is listed as 10.8 ± 4.0%; the “percentage variation in the latency … 20'” value is 54.2 ± 17.0%; the “percentage variation in the latency … 30'” value is 46.6 ± 21.0%; the “percentage variation in the latency … 45'” value is 41.7 ± 16.0%. Also, in assay [2], the “percentage variation in the latency … 60'” value is 32.0 ± 17.0%; the “percentage variation in the latency … 90'” value is -6.4 ± 10.0%; the “M(10'-90') average percentage variation” value is 29.8%. Also, the “percentage variation in the latency time, day 0” value in assay [4] (day 0, 3 mg/kg i.p. + morphine HCl 3 mg/kg i.p. (row Morphine: alone)) was found to be 35.83%. Moreover, the “percentage variation in the latency time, day 1” value in assay [4] (day 1, 3 mg/kg i.p. + morphine HCl 3 mg/kg i.p. (row Morphine: alone)) was determined as 37.43%. Moreover, the “percentage variation in the latency time, day 2” value in assay [4] (day 2, 3 mg/kg i.p. + morphine HCl 3 mg/kg i.p. (row Morphine: alone)) is recorded as 30.33%. The “percentage variation in the latency time, day 3” value in assay [4] (day 3, 3 mg/kg i.p. + morphine HCl 3 mg/kg i.p. (row Morphine: alone)) is given as 16.06%. Besides, in assay [4] (day 4, 3 mg/kg i.p. + morphine HCl 3 mg/kg i.p. (row Morphine: alone)), the “percentage variation in the latency time, day 4” value stood at 22.46%. In assay [4] (day 5, 3 mg/kg i.p. + morphine HCl 3 mg/kg i.p. (row Morphine: alone)), the “percentage variation in the latency time, day 5” value was found to be 9.63%. The “percentage variation in the latency time, day 6” value in assay [4] (day 6, 3 mg/kg i.p. + morphine HCl 3 mg/kg i.p. (row Morphine: alone)) is reported as 7.28%. Moreover, the “percentage variation in the latency time, day 7” value in assay [4] (day 7, 3 mg/kg i.p. + morphine HCl 3 mg/kg i.p. (row Morphine: alone)) is 1.95%. Further, in assay [4] (days 0-7, 3 mg/kg + morphine (row Morphine: alone)), the “regression line % Effect versus Day” value was “% Effect = - 5.34 Day + 38.72”. Besides, the “day on which activity falls to 0 / inactive level is reached” value in assay [4] (from the straight lines of regression, groups C, D and E extrapolated) is listed as “sixth”.

On to `CCCCC1C(=O)N(c2ccccc2)N(c2ccc(O)cc2)C1=O` (centres unmarked) [Oxyphenylbutazone, reference compound], for which, in assay [1], the “positive responses over the number treated, 10'” value was 2/5; the “Positive Total X/25” value is 7; the “positive responses over the number treated, 20'” value was 1/5; the “positive responses over the number treated, 30'” value is 2/5. Further, in assay [1], the “positive responses over the number treated, 45'” value was 2/5 and the “positive responses over the number treated, 60'” value was 0/5.

With `CCC(=O)O[C@](Cc1ccccc1)(c1ccccc1)[C@H](C)CN(C)C` [Propoxyphene, reference compound], in assay [1], the “positive responses over the number treated, 10'” value is 2/5; the “Positive Total X/25” value is recorded as 11; the “positive responses over the number treated, 20'” value was 2/5; the “positive responses over the number treated, 30'” value is 3/5. In assay [1], the “positive responses over the number treated, 45'” value is recorded as 3/5 and the “positive responses over the number treated, 60'” value was 1/5.
